Measurements as given in patent publication US20230053688A1, “METHODS TO ALTER LATENCY IN EBV+ MALIGNANCIES” (Cornell University, priority 2020, published 2023).
Like-named read-outs stand apart in the source and are kept apart here.

System: LMP1 expression in Kem I cells
Assay: microbe, parasite or virus in culture
Format: cell-based, EBV
Conditions: for Average LMP1 Fold Increase / Replicate 1-LMP1 Fold Increase / Replicate 2-LMP1 Fold Increase: Kem I cells, 2.5 uM, 48 hours; for Average LMP1 Fold Increase: average of replicates 1 and 2; for Replicate 1-LMP1 Fold Increase / Replicate 2-LMP1 Fold Increase: fold change in LMP1 transcript vs vehicle; for fold induction at 1 µM / fold induction at 2.5 µM: human gammaherpesvirus 4, 48 h
[1] = read-out: Average LMP1 Fold Increase, Kem I cells, 2.5 uM, 48 hours, average of replicates 1 and 2
[2] = read-out: Replicate 1-LMP1 Fold Increase, Kem I cells, 2.5 uM, 48 hours, fold change in LMP1 transcript vs vehicle
[3] = read-out: Replicate 2-LMP1 Fold Increase, Kem I cells, 2.5 uM, 48 hours, fold change in LMP1 transcript vs vehicle

| Structure (SMILES) | Average LMP1 Fold Increase | Replicate 1-LMP1 Fold Increase | Replicate 2-LMP1 Fold Increase | also measured |
| --- | --- | --- | --- | --- |
| C[C@@H](Oc1cc(-n2cnc3ccc(CN4CCN(C)CC4)cc32)sc1C(N)=O)c1ccccc1C(F)(F)F [GSK461364] | 1.62 | 1.73 | 1.50 |  |
| CCn1c(-c2nonc2N)nc2c(C#CC(C)(C)O)ncc(OC[C@H]3CCCNC3)c21 [GSK690693] | 0.63 | 0.85 | 0.41 |  |
| CC(C)c1noc(N2CCC(COc3ccc(-c4ccc(S(C)(=O)=O)cc4)nc3)CC2)n1 [GSK1292263] | 0.27 | 0.20 | 0.34 |  |
| CCc1cc(Nc2nccc(-c3c(-c4ccc(OC)c(C(=O)Nc5c(F)cccc5F)c4)nc4ccccn34)n2)c(OC)cc1N1CCC(N2CCN(S(C)(=O)=O)CC2)CC1 [GSK1904529A] | 0.20 | 0.18 | 0.23 |  |
| Cc1cccc(CC(=O)N2CCc3c2ccc(-c2cn(C)c4ncnc(N)c24)c3F)n1 [GSK2656157] | 0.71 | 0.58 | 0.84 |  |
| CCOC(=O)CCNc1cc(N2CCc3ccccc3CC2)nc(-c2ccccn2)n1.Cl [GSK J4 HCl] | 32.34 | 48.53 | 16.15 |  |
| Cc1cc(SCc2sc(-c3ccc(C(F)(F)F)c(F)c3)nc2C)ccc1OCC(=O)O [GW0742] | 0.76 | 0.53 | 0.99 |  |
| COc1ccc(COc2ccc(Cc3cnc(N)nc3N)cc2OC)cc1 [GW2580] | 0.49 | 0.50 | 0.48 |  |
| Cl.O=C(O)Cc1cccc(OCCCN(Cc2cccc(C(F)(F)F)c2Cl)CC(c2ccccc2)c2ccccc2)c1 [GW3965 HCl] | 0.27 | 0.20 | 0.35 |  |
| CC(C)c1onc(-c2c(Cl)cccc2Cl)c1COc1ccc(/C=C/c2cccc(C(=O)O)c2)c(Cl)c1 [GW4064] | 0.72 | 0.94 | 0.50 |  |
| O=C(O)CCc1ccc(NCc2cccc(Oc3ccccc3)c2)cc1 [GW9508] | 0.48 | 0.52 | 0.45 |  |
| O=C(Nc1ccccc1)c1cc([N+](=O)[O-])ccc1Cl [GW9662] | 0.58 | 0.26 | 0.89 |  |
| Cn1cc(/C=C2\C(=O)Nc3cccnc32)c2ccccc21 [GW441756] | 0.80 | 0.70 | 0.89 |  |
| CC(C)c1cc(-c2n[nH]c(=O)n2-c2ccc3c(ccn3C)c2)c(O)cc1O [Ganetespib] |  |  |  | fold induction at 1 µM (read-out: Average LMP1 Fold Increase, Kem I cells, 1 uM, 48 hours, average of replicates 1 and 2): 23.4; fold induction at 1 µM (read-out: Replicate 1-LMP1 Fold Increase, Kem I cells, 1 uM, 48 hours, fold change in LMP1 transcript vs vehicle): 8.07; fold induction at 1 µM (read-out: Replicate 2-LMP1 Fold Increase, Kem I cells, 1 uM, 48 hours, fold change in LMP1 transcript vs vehicle): 38.8 |
| C[C@@H]1C(=O)O[C@H]2C[C@@]34[C@H]5C[C@@H](C(C)(C)C)[C@]36[C@@H](OC(=O)[C@@H]6O)O[C@@]4(C(=O)O5)[C@]21O [Ginkgolide A] | 0.91 | 1.33 | 0.49 |  |
| CC1C(=O)OC2C(O)C34C5CC(C(C)(C)C)C36C(OC(=O)C6O)OC4(C(=O)O5)C12O (stereo not drawn) [Ginkgolide B] | 0.76 | 1.04 | 0.49 |  |
| Cc1ccc(S(=O)(=O)NC(=O)NN2CC3CCCC3C2)cc1 (stereo not drawn) [Gliclazide] |  |  |  | fold induction at 2.5 µM [1]: 0.73; fold induction at 2.5 µM [2]: 0.98; fold induction at 2.5 µM [3]: 0.49 |
| COc1ccc2c(c1)C(=O)N(CCc1ccc(S(=O)(=O)NC(=O)NC3CCCCC3)cc1)C(=O)C2(C)C [Gliquidone] |  |  |  | fold induction at 2.5 µM [1]: 0.77; fold induction at 2.5 µM [2]: 0.81; fold induction at 2.5 µM [3]: 0.73 |
